For this assay, the system named is BDF1 mice, B16 melanoma ip, median survival T/C. Put plainly: NCI In Vivo Anticancer Drug Screen. Data for tumor model B16 Melanoma (intraperitoneal) in B6D2F1 (BDF1) mice. As to conditions: endpoint: median survival time, higher = longer survival. Summed up:
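Transplantable tumor model; survival or tumor size measured; reported as T/C, treated over vehicle control.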

Where [1] appears, read: dose: 25.0 mg/kg/injection, schedule: Q01DX009 (ip), vehicle: saline.
The mark [2] stands for this setting: dose: 50.0 mg/kg/injection, schedule: Q01DX009 (ip), vehicle: saline.
Where [3] appears, read: dose: 100.0 mg/kg/injection, schedule: Q01DX009 (ip), vehicle: saline.
The mark [4] stands for this setting: dose: 200.0 mg/kg/injection, schedule: Q01DX009 (ip), vehicle: saline.
The mark [5] stands for this setting: dose: 400.0 mg/kg/injection, schedule: Q01DX009 (ip), vehicle: saline.
Setting [6] is: dose: 12.5 mg/kg/injection, schedule: Q01DX009 (ip), vehicle: Klucel (hydroxypropylcellulose) (HPC).
[7] abbreviates: dose: 25.0 mg/kg/injection, schedule: Q01DX009 (ip), vehicle: Klucel (hydroxypropylcellulose) (HPC).
The mark [8] stands for this setting: dose: 50.0 mg/kg/injection, schedule: Q01DX009 (ip), vehicle: Klucel (hydroxypropylcellulose) (HPC).
The mark [9] stands for this setting: dose: 6.25 mg/kg/injection, schedule: Q01DX009 (ip), vehicle: other.
Setting [10] is: dose: 100.0 mg/kg/injection, schedule: Q01DX009 (ip), vehicle: saline with Tween-80.

Several values for one entry are separate records, joined by “and”; a condition that tells them apart may be missing. Equal entries are not always repeated. Toxic doses and inconclusive results are not listed. Peptide text beside a SMILES is read from it.

As to `NC(N)=NCCCC(N)C(=O)NC(CCC(=O)O)C(=O)O` (stereo not drawn) (H-Arg-Glu-OH; configuration not given here), the T/C by setting is: under setting [1], 108 % of control; under setting [2], 96 % of control; under setting [3], 104 % of control; under setting [4], 102 % of control; under setting [5], 101 % of control.
On to `c1ccc(CC2NCCc3c2[nH]c2ccccc32)cc1` (stereo unspecified), for which the T/C reads like this: under setting [6], 105 % of control; under setting [7], 91 % of control and 95 % of control; under setting [8], 86 % of control and 89 % of control; (dose: 100.0 mg/kg/injection, schedule: Q01DX009 (ip), vehicle: Klucel (hydroxypropylcellulose) (HPC)) 86 % of control; (dose: 200.0 mg/kg/injection, schedule: Q01DX009 (ip), vehicle: Klucel (hydroxypropylcellulose) (HPC)) 105 % of control.
As for `CCOC(=O)/C(=C\c1ccccc1)P(=O)(OCC)c1ccccc1` (stereo unspecified), the T/C runs as follows: (dose: 25.0 mg/kg/injection, schedule: Q04DX003 (ip), vehicle: Klucel (hydroxypropylcellulose) (HPC)) 93 % of control; (dose: 50.0 mg/kg/injection, schedule: Q04DX003 (ip), vehicle: Klucel (hydroxypropylcellulose) (HPC)) 95 % of control; (dose: 100.0 mg/kg/injection, schedule: Q04DX003 (ip), vehicle: Klucel (hydroxypropylcellulose) (HPC)) 94 % of control.
Regarding `C=CCc1cc2c(C)cc(=O)oc2c(C)c1OC(C)=O`, the T/C (dose: 100.0 mg/kg/injection, schedule: Q04DX003 (ip), vehicle: gum acacia) was 95 % of control; the T/C (dose: 200.0 mg/kg/injection, schedule: Q04DX003 (ip), vehicle: gum acacia) was 86 % of control; the T/C (dose: 400.0 mg/kg/injection, schedule: Q04DX003 (ip), vehicle: gum acacia) was 86 % of control.
On to `CC/C(CC(C)CC)=N\O` (stereo unspecified), for which the T/C under setting [3] was 100 % of control, the T/C under setting [4] is 94 % of control and the T/C under setting [5] is 94 % of control.
As for `CC(=O)[O][Sn]([CH2]c1ccccc1)([CH2]c1ccccc1)[CH2]c1ccccc1`, the T/C runs as follows: (dose: 1.5 mg/kg/injection, schedule: Q01DX009 (ip), vehicle: other) 101 % of control; (dose: 3.0 mg/kg/injection, schedule: Q01DX009 (ip), vehicle: other) 96 % of control; (dose: 6.0 mg/kg/injection, schedule: Q01DX009 (ip), vehicle: other) 103 % of control; under setting [9], 111 % of control.
For `C#C[C@]1(O)CC[C@H]2[C@@H]3CCc4cc(O)ccc4[C@H]3CC[C@@]21C`, the T/C (dose: 5.0 mg/kg/injection, schedule: Q02DX009 (ip), vehicle: Klucel (hydroxypropylcellulose) (HPC)) is 86 % of control; the T/C (dose: 10.0 mg/kg/injection, schedule: Q02DX009 (ip), vehicle: Klucel (hydroxypropylcellulose) (HPC)) was 97 % of control; the T/C (dose: 20.0 mg/kg/injection, schedule: Q02DX009 (ip), vehicle: Klucel (hydroxypropylcellulose) (HPC)) is 87 % of control; the T/C (dose: 40.0 mg/kg/injection, schedule: Q02DX009 (ip), vehicle: Klucel (hydroxypropylcellulose) (HPC)) was 86 % of control and 96 % of control; the T/C (dose: 80.0 mg/kg/injection, schedule: Q02DX009 (ip), vehicle: Klucel (hydroxypropylcellulose) (HPC)) is 86 % of control.
For the compound `Oc1ccc2ccccc2c1N=Nc1ccc(F)cc1`, the T/C is 119 % of control under setting [10] and 108 % of control (dose: 400.0 mg/kg/injection, schedule: Q01DX009 (ip), vehicle: saline with Tween-80).
For the compound `COc1ccc(C(=O)C(C)Br)c(OCc2ccccc2)c1OC` (stereo unspecified), the T/C by setting is: under setting [10], 95 % of control; (dose: 100.0 mg/kg/injection, schedule: Q04DX003 (ip), vehicle: saline with Tween-80) 94 % of control; (dose: 200.0 mg/kg/injection, schedule: Q01DX009 (ip), vehicle: saline with Tween-80) 87 % of control; (dose: 200.0 mg/kg/injection, schedule: Q04DX003 (ip), vehicle: saline with Tween-80) 100 % of control; (dose: 400.0 mg/kg/injection, schedule: Q04DX003 (ip), vehicle: saline with Tween-80) 97 % of control.
With `C=C1C(=O)OC2C1C(OC(=O)/C(C)=C/COC(C)=O)CC1(CO1)C1C(O)C=C(C)C21` (stereo unspecified), the T/C under setting [9] was 103 % of control; the T/C (dose: 12.5 mg/kg/injection, schedule: Q01DX009 (ip), vehicle: other) is 100 % of control; the T/C (dose: 25.0 mg/kg/injection, schedule: Q01DX009 (ip), vehicle: other) is 104 % of control.
Consider `CS(=O)(=O)c1nnc(-c2ccccc2)s1`, for which the T/C is 111 % of control (dose: 100.0 mg/kg/injection, schedule: Q01DX009 (ip), vehicle: carboxymethylcellulose (CMC)) and 102 % of control (dose: 200.0 mg/kg/injection, schedule: Q01DX009 (ip), vehicle: carboxymethylcellulose (CMC)).
On to `C1CN1c1nc(N2CC2)nc(N2CC2)n1`, for which the T/C reads like this: (dose: 0.05 mg/kg/injection, schedule: Q01DX009 (ip), vehicle: saline) 97 % of control and 108 % of control; (dose: 0.06 mg/kg/injection, schedule: Q01DX009 (ip), vehicle: saline) 103 % of control; (dose: 0.06 mg/kg/injection, schedule: Q01DX009 (ip), vehicle: suspension in saline) 103 % of control; (dose: 0.1 mg/kg/injection, schedule: Q01DX009 (ip), vehicle: saline) 103 % of control and 109 % of control and 120 % of control; (dose: 0.12 mg/kg/injection, schedule: Q01DX009 (ip), vehicle: saline with Tween-80) 107 % of control; (dose: 0.12 mg/kg/injection, schedule: Q01DX009 (ip), vehicle: suspension in saline) 100 % of control. The T/C by setting is: (dose: 0.13 mg/kg/injection, schedule: Q01DX009 (ip), vehicle: saline sonified) 94 % of control and 96 % of control; (dose: 0.13 mg/kg/injection, schedule: Q01DX009 (ip), vehicle: saline with Tween-80) 102 % of control and 105 % of control; (dose: 0.25 mg/kg/injection, schedule: Q01DX009 (ip), vehicle: saline sonified) 96 % of control and 100 % of control; (dose: 0.25 mg/kg/injection, schedule: Q01DX009 (ip), vehicle: saline with Tween-80) 107 % of control and 108 % of control and 119 % of control; (dose: 0.25 mg/kg/injection, schedule: Q01DX009 (ip), vehicle: suspension in saline) 108 % of control; (dose: 0.3 mg/kg/injection, schedule: Q01DX009 (ip), vehicle: saline) 150 % of control. Besides, the T/C by setting is: (dose: 0.5 mg/kg/injection, schedule: Q01DX009 (ip), vehicle: saline sonified) 96 % of control and 101 % of control; (dose: 0.5 mg/kg/injection, schedule: Q01DX009 (ip), vehicle: saline with Tween-80) 105 % of control and 114 % of control and 119 % of control; (dose: 0.5 mg/kg/injection, schedule: Q01DX009 (ip), vehicle: suspension in saline) 124 % of control; (dose: 0.5 mg/kg/injection, schedule: Q08DX002 (ip), vehicle: saline sonified) 98 % of control and 103 % of control; (dose: 0.5 mg/kg/injection, schedule: Q08DX002 (ip), vehicle: saline with Tween-80) 100 % of control and 119 % of control; (dose: 1.0 mg/kg/injection, schedule: Q01DX009 (ip), vehicle: suspension in saline) 109 % of control. Also, the T/C (dose: 1.0 mg/kg/injection, schedule: Q08DX002 (ip), vehicle: saline sonified) was 108 % of control and 114 % of control; the T/C (dose: 1.0 mg/kg/injection, schedule: Q08DX002 (ip), vehicle: saline with Tween-80) was 102 % of control and 113 % of control and 116 % of control; the T/C (dose: 2.0 mg/kg/injection, schedule: Q08DX002 (ip), vehicle: saline sonified) is 105 % of control; the T/C (dose: 2.0 mg/kg/injection, schedule: Q08DX002 (ip), vehicle: saline with Tween-80) is 123 % of control; the T/C (dose: 4.0 mg/kg/injection, schedule: Q08DX002 (ip), vehicle: saline with Tween-80) was 90 % of control and 105 % of control.
Consider `NC1CC[N-]CC1.NC1CC[N-]CC1.NC1CC[N-]CC1.NC1CC[N-]CC1.[Cl][Rh][Cl]`, for which the T/C is, setting by setting: (dose: 6.25 mg/kg/injection, schedule: Q01DX009 (ip), vehicle: saline with Tween-80) 103 % of control; (dose: 12.5 mg/kg/injection, schedule: Q01DX009 (ip), vehicle: saline with Tween-80) 101 % of control; (dose: 25.0 mg/kg/injection, schedule: Q01DX009 (ip), vehicle: saline with Tween-80) 93 % of control.
`CSCCC(N)C(=O)NC(CC(N)=O)C(=O)O` (stereo not drawn) (H-Met-Asn-OH; configuration not given here): the T/C by setting is: under setting [1], 103 % of control; under setting [2], 108 % of control; under setting [3], 96 % of control; under setting [4], 89 % of control.
Regarding `CC[N+]1(C2CCC3CCC2C3O)CCOCC1` (stereo unspecified), the T/C is 105 % of control under setting [1], 105 % of control under setting [2] and 105 % of control under setting [3].
In the case of `CCc1ccccc1N1CCN(C(=O)c2cc(OC)c(OC)c(OC)c2)CC1`, the T/C is 88 % of control under setting [6], 94 % of control under setting [7] and 94 % of control under setting [8].
